From US10364245B2 (CHIESI FARMACEUTICI S.p.A., priority 2017, dated 2019)
Where a name gives a salt, the structure may show the parent alone.

Target: T1, p38 alpha (Homo sapiens, UniProt Q16539)
T1 construct: purchased Invitrogen PV3304
Experiment: P38 alpha enzyme inhibition assay (Alphascreen kinase activity assay)
Format: biochemical
Conditions: 100 pM p38 alpha, 2 hours preincubation at 25° C., 250 μM ATP, ATF-2 fusion protein; read-out: p38α inhibition
Method: P38 Alpha Enzyme Inhibition Assay
The inhibitory activity of compounds was determined using an Alphascreen® (Perkin Elmer) based kinase activity assay. Kinase reactions consisted of 25 mM HEPES pH 7.5, 10 mM MgCl2, 100 μM Na3VO4, 2 mM DTT, 0.05 mg/ml Tween 20, 100 pM p38 alpha (Invitrogen, PV3304), 1% DMSO and 0.3 μg/ml ATF-2 fusion protein (New England Biolabs, 9224). Compounds were incubated under these conditions for 2 hours, at 25° C., prior to the initiation of the kinase activity by the addition of the 250 μM ATP. Reaction volumes were 20 μL. After 1 hr at 25° C. reactions were stopped by the adding 10 μL of 25 mM HEPES pH 7.5 containing 62.5 mM EDTA, 0.05% Triton X-100, 10% BSA and 0.83 ng/uL anti-phospho-ATF2 antibody (Abcam, ab28812). Detection was performed by measuring luminescence following the addition of Alphascreen Donor beads (Perkin Elmer 6765300) and Protein A Alphascreen Acceptor beads (Perkin Elmer 6760137), both at a final concentration of 20 ug/ml. IC50 values were determined from concentration-response curves.

T1 sequence (Q16539 whole entry): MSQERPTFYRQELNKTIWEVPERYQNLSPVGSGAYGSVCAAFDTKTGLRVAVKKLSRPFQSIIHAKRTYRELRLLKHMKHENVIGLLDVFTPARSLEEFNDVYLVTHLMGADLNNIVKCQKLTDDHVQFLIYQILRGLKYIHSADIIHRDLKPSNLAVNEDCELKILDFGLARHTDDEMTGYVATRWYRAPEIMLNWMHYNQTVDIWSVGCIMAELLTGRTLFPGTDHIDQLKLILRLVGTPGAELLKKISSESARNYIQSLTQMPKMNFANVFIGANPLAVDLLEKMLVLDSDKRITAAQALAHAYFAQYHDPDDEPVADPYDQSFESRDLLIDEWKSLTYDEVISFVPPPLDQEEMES

IC50, 1 to 10 nM:
CN1CCCN(C(=O)c2nc(NC(=O)N[C@H]3CC[C@@H](Oc4ccc5nnc(C(C)(C)C)n5c4)c4ccccc43)cc(C(C)(C)C)n2)CC1 [Example 133, 1-(6-(tert-butyl)-2-(4-methyl-1,4-diazepane-1-carbonyl)pyrimidin-4-yl)-3-((1S,4R)-4-((3-(tert-butyl)-[1,2,4]triazolo[4,3-a]pyridin-6-yl)oxy)-1,2,3,4-tetrahydronaphthalen-1-yl)urea]
CCOC(C)(C)c1nnc2ccc(O[C@@H]3CC[C@H](NC(=O)Nc4cc(C(C)(C)C)nc(C(=O)NCCN(C)C)n4)c4ccccc43)cn12 [Example 180, 4-(tert-Butyl)-N-(2-(dimethylamino)ethyl)-6-(3-((1S,4R)-4-((3-(2-ethoxypropan-2-yl)-[1,2,4]triazolo[4,3-a]pyridin-6-yl)oxy)-1,2,3,4-tetrahydronaphthalen-1-yl)ureido)pyrimidine-2-carboxamide formate salt]
COC(C)(C)c1nnc2ccc(O[C@@H]3CC[C@H](NC(=O)Nc4cc(C(C)(C)C)nc(C(=O)NCC(C)(C)N5CCN(C)CC5)n4)c4ccccc43)cn12 [Example 157, 4-(tert-butyl)-6-(3-((1S,4R)-4-((3-(2-methoxypropan-2-yl)-[1,2,4]triazolo[4,3-a]pyridin-6-yl)oxy)-1,2,3,4-tetrahydronaphthalen-1-yl)ureido)-N-(2-methyl-2-(4-methylpiperazin-1-yl)propyl)pyrimidine-2-carboxamide]
COC1CN(C(C)(C)CNC(=O)c2nc(NC(=O)N[C@H]3CC[C@@H](Oc4ccc5nnc(C(C)(C)OC)n5c4)c4ccccc43)cc(C(C)(C)C)n2)C1 [Example 172, 4-(tert-butyl)-N-(2-(3-methoxyazetidin-1-yl)-2-rnethylpropyl)-6-(3-((1S,4R)-4-((3-(2-methoxypropan-2-yl)-[1,2,4]triazolo[4,3-a]pyridin-6-yl)oxy)-1,2,3,4-tetrahydronaphthalen-1-yl)ureido)pyrimidine-2-carboxamide]
CN(C)C1(CNC(=O)c2nc(NC(=O)N[C@H]3CC[C@@H](Oc4ccc5nnc(C(C)(C)C)n5c4)c4ccccc43)cc(C(C)(C)C)n2)CCC1 [Example 162, 4-(tert-butyl)-6-(3-((1S,4R)-4-((3-(tert-butyl)-[1,2,4]triazolo[4,3-a]pyridin-6-yl)oxy)-1,2,3,4-tetrahydronaphthalen-1-yl)ureido)-N-((1-(dimethylamino)-cyclobutyl)methyl)pyrimidine-2-carboxamide]
CCC(CC)(CNC(=O)c1nc(NC(=O)N[C@H]2CC[C@@H](Oc3ccc4nnc(C(C)(C)C)n4c3)c3ccccc32)cc(C(C)(C)C)n1)N(C)C [Example 168, 4-(tert-butyl)-6-(3-((1S,4R)-4-((3-(tert-butyl)-[1,2,4]triazolo[4,3-a]pyridin-6-yl)oxy)-1,2,3,4-tetrahydronaphthalen-1-yl)ureido)-N-(2-(dimethylamino)-2-ethylbutyl)pyrimidine-2-carboxamide]
CC(C)(C)c1cc(NC(=O)N[C@H]2CC[C@@H](Oc3ccc4nnc(C(C)(C)C)n4c3)c3ccccc32)nc(C(=O)N2CCN(CCO)CC2)n1 [Example 116, 1-(6-(tert-butyl)-2-(4-(2-hydroxyethyl)piperazine-1-carbonyl)pyrimidin-4-yl)-3-((1S,4R)-4-((3-(tert-butyl)-[1,2,4]triazolo[4,3-a]pyridin-6-yl)oxy)-1,2,3,4-tetrahydronaphthalen-1-yl)urea]
CCC(CC)(CNC(=O)c1nc(NC(=O)N[C@H]2CC[C@@H](Oc3ccc4nnc(C(C)(C)COC)n4c3)c3ccccc32)cc(C(C)(C)C)n1)N(C)C [Example 147, 4-(tert-butyl)-N-(2-(dimethylamino)-2-ethylbutyl)-6-(3-((1S,4R)-4-((3-(1-methoxy-2-methylpropan-2-yl)-[1,2,4]triazolo[4,3-a]pyridin-6-yl)oxy)-1,2,3,4-tetrahydronaphthalen-1-yl)ureido)pyrimidine-2-carboxamide]
